18 molecules from patent publication US20250223301A1, “KINASE INHIBITORS, PREPARATION METHODS AND USES THEREOF” (InventisBio Co., Ltd., priority 2022, published 2025) can be followed below.

The subject of one assay is PBMC. The assay is described as follows: Human PBMC IL-2 assay. The class given is cell-based. To be noted: anti-CD3/CD28 stimulation overnight, IL-2 level. The method in brief: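 Healthy-donor frozen PBMC were thawed, rested 4 h at 37 °C and plated at ~200,000 cells/well. Cells were preincubated 60 min at 37 °C with compound solution (10 uM to 0.6 nM, 8 points, 4-fold, as added), then stimulated overnight with anti-CD3/CD28. Supernatant IL-2 was quantified by immunoassay kit and plotted against log compound concentration.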

The next assay relates to Jurkat cells. The experiment in a line: Jurkat IL-2 assay. The class given is cell-based. Conditions: Homo sapiens, anti-CD3/CD28 stimulation overnight, IL-2 level. The method in brief:
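Cells in RPMI-1640 with 10% FBS received compound solution (5 uM to 2.3 nM, 8 points, 3-fold dilution) for 60 minutes at 37° C. They were then stimulated overnight at 37° C. with anti-CD3/CD28 antibody. IL-2 in the supernatant was quantified by immunoassay kit and plotted against log compound concentration.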

In the case of `CC[C@@H](c1ccc(C(F)(F)F)c(F)c1)N1C[C@H]2COc3c(c4nc(C#N)ccc4n(C)c3=O)N2C[C@H]1C` (stereo in doubt) [Compound 329], the figures for the half-maximal effective concentration (EC50) in the assay on PBMC and with Jurkat cells were 54 nM and 97 nM, respectively.
With `CC[C@@H]1CN2c3c(c(=O)n(C)c4ccc(C#N)nc34)OC[C@@H]2CN1[C@H](CC)c1ccc(F)c(C)c1` (stereo in doubt) [Compound 336], the EC50 stood at 163 nM with PBMC and 131 nM in the assay on Jurkat cells.
As for `CC[C@@H]1CN2c3c(c(=O)n(C)c4ccc(C#N)nc34)OC[C@@H]2CN1[C@@H](CC)c1ccc(F)c(C)c1` (stereo in doubt) [Compound 337], the EC50 in the assay on PBMC was 16 nM; with Jurkat cells, 12 nM.
For `CC[C@@H]1CN2c3c(c(=O)n(C)c4ccc(C#N)nc34)OC[C@@H]2CN1[C@H](CC)c1ccc(C)c(F)c1` (stereo in doubt) [Compound 338], in that order: 153 nM and 86 nM.
For `CC[C@@H]1CN2c3c(c(=O)n(C)c4ccc(C#N)nc34)OC[C@@H]2CN1[C@@H](CC)c1ccc(C)c(F)c1` (stereo in doubt) [Compound 339], in that order: 13 nM and 7 nM.
On to `CC[C@@H]1CN2c3c(c(=O)n(C)c4ccc(C#N)nc34)OC[C@@H]2CN1[C@@H](CC)c1ccc(Cl)c(C)c1` (stereo in doubt) [Compound 341], for which the half-maximal effective concentration (EC50) in the assay on PBMC was 13 nM; with Jurkat cells it was 6 nM.
The matching figures for `CC[C@@H]1CN2c3c(c(=O)n(C)c4ccc(C#N)nc34)OC[C@@H]2CN1[C@H](CC)c1ccc(C)c(Cl)c1` (stereo in doubt) [Compound 342]: 280 nM and 125 nM.
For `CC[C@@H]1CN2c3c(c(=O)n(C)c4ccc(C#N)nc34)OC[C@@H]2CN1[C@@H](CC)c1ccc(C)c(Cl)c1` (stereo in doubt) [Compound 343], in that order: 18 nM and 45 nM.
The matching figures for `CC[C@@H]1CN2c3c(c(=O)n(C)c4ccc(C#N)nc34)OC[C@@H]2CN1[C@H](CC)c1ccc(C)cc1` (stereo in doubt) [Compound 344]: 53 nM and 96 nM.
In the case of `CC[C@@H]1CN2c3c(c(=O)n(C)c4ccc(C#N)nc34)OC[C@@H]2CN1[C@@H](CC)c1ccc(C)cc1` (stereo in doubt) [Compound 345], the results for the EC50 in the assay with PBMC and in the assay on Jurkat cells were 10 nM and 18 nM, respectively.
For `CC[C@H]1CN(C2CCCOc3cc(C(F)(F)F)ccc32)[C@H](CC)CN1c1nc(=O)n(C)c2ccc(C#N)nc12` (stereo partly drawn) [Compound 154], in that order: 734 nM and 526 nM.
The matching figures for `CC[C@H]1CN2[C@@H](COC[C@@H]2c2ccc(C(F)(F)F)cc2)CN1c1nc(=O)n(C)c2ccc(C#N)nc12` [Compound 193]: 1310 nM and 1620 nM.
`CC[C@@H]1CN2c3c(c(=O)n(C)c4ccc(C#N)nc34)N(C)C(=O)[C@@H]2CN1[C@H](CC)c1ccc(C(F)(F)F)cc1` [Compound 199]: the EC50 was determined as 1580 nM with PBMC and 873 nM in the assay with Jurkat cells.
For `CC[C@@H]1CN2c3c(c(=O)n(C)c4ccc(C#N)cc34)OC[C@@H]2CN1[C@@H](CC)c1ccc(C(F)(F)F)cc1` [Compound 210], in that order: 1720 nM and 565 nM.
For `CC[C@@H]1CN2c3c(c(=O)n(C)c4ccc(C#N)cc34)OC[C@@H]2CN1[C@H](CC)c1ccc(C(F)(F)F)cc1` [Compound 211], in that order: 175 nM and 485 nM.
For the molecule `CC[C@@H]1CN2c3c(c(=O)n(C)c4ccc(C#N)nc34)N(C)C[C@@H]2CN1[C@@H](CC)c1ccc(C(F)(F)F)cc1` [Compound 221], the EC50 with PBMC was 624 nM; in the assay on Jurkat cells it was 503 nM.
As to `CC[C@@H]1CN2c3c(c(=O)n(C)c4ccc(C#N)nc34)OC[C@@H]2CN1[C@@H](CO)c1ccc(C(F)(F)F)cc1` [Compound 235], the EC50 is 662 nM in the assay with PBMC and 538 nM in the assay on Jurkat cells.
For `C[C@H]1c2cccc(-c3ccc(C(F)(F)F)cc3)c2CCN1c1nc(=O)n(C)c2ccc(C#N)nc12` [Compound 241], in that order: 1100 nM and 588 nM.

The term EC50 denotes the concentration that produces a half-maximal response. Lower therefore signals a more potent agent.
